Experimental data reported in the NIST ThermoML archive (doi:10.1007/s10765-008-0535-5).

Experiment: wn = mass fraction of the nth substance listed
Conditions: Liquid, Pycnometric method, w2 = 0.5111

FC(F)C(F)(F)F [pentafluoroethane] + FCF
Conditions	mass density [kg/m3]
268.15 K, 3423 kPa	1190.3
269.15 K, 4259 kPa	1190.1
270.15 K, 5065 kPa	1189.9
270.15 K, 5095 kPa	1189.9
270.15 K, 5157 kPa	1190.1
271.15 K, 5903 kPa	1189.7
271.15 K, 5931 kPa	1189.7
271.15 K, 5992 kPa	1189.9
272.15 K, 6740 kPa	1189.6
272.15 K, 6767 kPa	1189.5
272.15 K, 6828 kPa	1189.7
273.15 K, 7576 kPa	1189.4
273.15 K, 7602 kPa	1189.3
273.15 K, 7662 kPa	1189.5
274.15 K, 8411 kPa	1189.2
274.15 K, 8437 kPa	1189.2
274.15 K, 8496 kPa	1189.3
275.15 K, 9245 kPa	1189
275.15 K, 9272 kPa	1189
275.15 K, 9328 kPa	1189.2
276.15 K, 10082 kPa	1188.8
276.15 K, 10107 kPa	1188.8
276.15 K, 10161 kPa	1189
277.15 K, 10917 kPa	1188.6
277.15 K, 10942 kPa	1188.6
277.15 K, 10993 kPa	1188.8
278.15 K, 11753 kPa	1188.4
278.15 K, 11776 kPa	1188.4
278.15 K, 11824 kPa	1188.6
279.15 K, 12587 kPa	1188.2
279.15 K, 12611 kPa	1188.2
279.15 K, 12657 kPa	1188.4
280.15 K, 13423 kPa	1188.1
280.15 K, 13444 kPa	1188.1
280.15 K, 13488 kPa	1188.2
281.15 K, 14258 kPa	1187.9
281.15 K, 14277 kPa	1187.9
281.15 K, 14319 kPa	1188.1
282.15 K, 15091 kPa	1187.7
282.15 K, 15110 kPa	1187.7
282.15 K, 15148 kPa	1187.9
283.15 K, 15926 kPa	1187.5
283.15 K, 15943 kPa	1187.6
283.15 K, 15978 kPa	1187.7
284.15 K, 16759 kPa	1187.4
284.15 K, 16775 kPa	1187.4
284.15 K, 16808 kPa	1187.6
285.15 K, 17592 kPa	1187.2
285.15 K, 17606 kPa	1187.2
285.15 K, 17637 kPa	1187.4
286.15 K, 18423 kPa	1187.1
286.15 K, 18437 kPa	1187.1
286.15 K, 18467 kPa	1187.2
287.15 K, 19253 kPa	1186.9
287.15 K, 19268 kPa	1186.9
287.15 K, 19297 kPa	1187.1
288.15 K, 20083 kPa	1186.7
288.15 K, 20097 kPa	1186.8
288.15 K, 20124 kPa	1186.9
289.15 K, 20914 kPa	1186.6
289.15 K, 20926 kPa	1186.6
289.15 K, 20951 kPa	1186.8
290.15 K, 21743 kPa	1186.4
290.15 K, 21755 kPa	1186.5
290.15 K, 21778 kPa	1186.6
291.15 K, 22571 kPa	1186.3
291.15 K, 22583 kPa	1186.3
291.15 K, 22607 kPa	1186.5
292.15 K, 23400 kPa	1186.2
292.15 K, 23410 kPa	1186.2
292.15 K, 23433 kPa	1186.4
293.15 K, 24226 kPa	1186
293.15 K, 24236 kPa	1186
293.15 K, 24257 kPa	1186.2
294.15 K, 25053 kPa	1185.9
294.15 K, 25062 kPa	1185.9
294.15 K, 25082 kPa	1186.1
295.15 K, 25878 kPa	1185.7
295.15 K, 25887 kPa	1185.7
295.15 K, 25903 kPa	1185.9
296.15 K, 5585 kPa	1097.9
296.15 K, 5620 kPa	1097.9
296.15 K, 5667 kPa	1097.9
296.15 K, 26704 kPa	1185.6
296.15 K, 26711 kPa	1185.6
296.15 K, 26725 kPa	1185.8
297.15 K, 6213 kPa	1097.7
297.15 K, 6246 kPa	1097.7
297.15 K, 6292 kPa	1097.7
297.15 K, 27528 kPa	1185.5
297.15 K, 27534 kPa	1185.5
297.15 K, 27546 kPa	1185.6
298.15 K, 6841 kPa	1097.5
298.15 K, 6872 kPa	1097.5
298.15 K, 6917 kPa	1097.6
298.15 K, 28352 kPa	1185.4
298.15 K, 28357 kPa	1185.3
